From patent publication US20240208896A1, “PRODRUGS OF KV7 CHANNEL OPENERS” (Xyzagen, Inc., priority 2021, published 2024)
Read-outs that look alike come from different tables or passages of the source.

Columns and labels:
[1] = Solvent solubility assessment by visual inspection; type: physicochemical
Protocol: Compounds were weighed and placed into a 4 dram vials and solvents were added to the target concentration. Compounds were vortex and visually inspected for particulates and considered soluble if clear upon visual inspection with and without magnification. Solubility was reported as either greater than (>) or less than (<) from the prepared concentration. […] It was evaluated at 10 mg/mL in 0.1 N NaCl and was freely soluble. It was evaluate at 1 mg/mL in 0.1 N NaOH and 0.1 N Na2HPO4 and was freely soluble. In ethanol and methanol it was freely soluble at a concentration of 75 mg/mL. […] It was freely soluble at 75 mg/mL in methanol and ethanol. It was soluble at 1 mg/mL in 1N HCl.

[2] = Benchtop solvent stability exposed to light, HPLC-UV 230 nm, up to 7 days; type: physicochemical; conditions: over 4 days
Protocol: Compounds in solvent were left on the benchtop exposed to light for up to 7 days since it is known that Compound 1 will degrade with light within 3-7 days.
Stability was assessed by taking an aliquot from the solubility vials at each test day. A single replicate was injected for each test condition.
Samples were injected onto an HPLC system with an aqueous mobile phase and acetonitrile organic phase and compounds were separated on a C8 50×2 mm column. Wavelength 230 nm was monitored for absorption and integrated for peak area while the mass spectrometer was used to confirm mass. Samples were tested on Day 1 and on subsequent days through Day 7.

[3] = 1000 ng/mL
Protocol: Plasma was collected by the biomaterial vendor and kept frozen at −20° C.
The samples were analyzed by HPLC separation and mass spectrometry detection for prodrug amount, relative to a baseline time 0 control sample. Triplicate samples were generated at each time point and the peak area response was averaged and converted to a percent of baseline control.

[4] = Pharmacokinetics of ezogabine prodrugs in rat (IV, IM, PO); conditions: rat, in vivo, po
Protocol: Blood was diluted by 10% with these stabilizers.
Extraction of the molecules was conducted by taking a 50 uL aliquot of plasma and adding 200 uL of acetonitrile containing 200 ng/mL tolbutamide as the internal standard. Samples were precipitated in a 96 well plate, centrifuges and an aliquot transferred to a new plate, dried down under heat and nitrogen and then reconstituted in the initial mobile phase conditions of the LC-MS/MS method. […] A standard curve was prepared from 5000 ng/mL to 1 ng/mL for each analyte. Concentration data from the bioanalytical run was analyzed by Phoenix Winnonlin version 8 for noncompartmental PK analysis, plotting of concentration time curves and tabulation of PK parameters.
150 uL of blood were collected at predesignated time points. At completion of the study animals were asphyxiated by carbon dioxide gas and exsanguinated for euthanasia.

Human Kv7.2/7.3 = Human Kv7.2/7.3 (Homo sapiens, UniProt O43525+O43526); assay: In vitro screen of Kv7.2/7.3 voltage gated potassium channels (FluxOR, FLIPR); type: cell-based; conditions: Human Kv7.2/7.3 cells; FluxOR fluorescence; 0.03 to 30 μM
Protocol: Human Kv7.2/7.3 cells are harvested, counted and seeded in black, clear-bottomed 96 well plates at a density of 50,000 cells per well in 100 μl volume and incubated overnight. The following day, media was removed and 40 μl of loading buffer (4.895 mL HBSS:HEPES, 50 μL probenecid, 50 μL power load, 5 μl FluxOR reagent) was added and incubated at room temperature for 30 minutes. After incubation loading buffer was removed and 40 μl of assay buffer added (4.45 ml HBSS:HEPES, 500 μl FluxOR assay buffer and 50 μL probenecid) and incubated for 10 minutes.

[5] = system: MES induced seizures in Rat; assay: SD rat MES test after IM administration; type: in vivo; conditions: SD rats, IM 75 mg/kg
Protocol: All treatments were at 0.083, 0.25, 0.5, 1, 2, 4, and 8 hours prior to the administration of MES test, where 6 seconds where 6 seconds without a seizure was considered protected.

[6] = Rat PK at equimolar dose to Ezogabine (20 mg/kg) in 0.5% methylcellulose; conditions: male cannulated rats; equimolar to Ezogabine 20 mg/kg; 0.5% methylcellulose; analyte the dosed prodrug
Protocol: (§1) Blood samples were collected at the same time points over 24 hours to generate a concentration time profile. Two male rats were dosed per group. Plasma samples were analyzed by LC/MS/MS and the resulting concentration time profiles and PK parameters are provided.
as §1, §1

[7] = system: formalin inflammatory model; assay: Formalin inflammatory pain model (hind paw flick/lick); type: in vivo; conditions: male CD-1 mouse; 100 mg/kg SC 30 minutes before 5% formalin; both phases (0-10 and 15-40 min)
Protocol: Compound 4 was assessed in the […] formalin inflammatory model. The number of flicks/licks of a male CD-1 mouse in the acute phase 0-10 minute and the inflammatory phase from 15-40 min after intraplantar administration of 50 μL of 5% formalin was recorded. […] Data is presented over the duration of the observation periods in 2 minute bins.

[8] = Acid and organic solution stability, HPLC-UV 250 nm; conditions: 5 mg/mL
Protocol: An HPLC-UV Vis method was developed using 0.1% Formic acid in water as mobile phase A and 0.1% Formic acid in acetonitrile as mobile Phase B. A gradient method was developed ramping from 10% A to 90% B over 8 minutes and then returning to 10% A at 8.5 minutes on a 4.6×50 mm Zorbax C-18 column. Injections of 10 uL of stability solutions were injected for analyte detection.
[…] Aliquots were collected at serial time points and then diluted to a nominal concentration of 100 ug/mL for injection to the HPLC and 250 nm monitored by the diode array detector. Data at approximately 10 days is presented.
Aliquots were collected at serial time points and then diluted to a nominal concentration of 100 ug/mL for injection to the HPLC and 250 nm monitored by the diode array detector.
(§2) It was also evaluated at 2 N HCl at 37° C. Aliquots were collected at serial time points and then diluted to a nominal concentration of 100 ug/mL for injection to the HPLC and 250 nm monitored by the diode array detector.
as §2, §2, §2

Sequence of Human Kv7.2/7.3 (O43526 whole entry): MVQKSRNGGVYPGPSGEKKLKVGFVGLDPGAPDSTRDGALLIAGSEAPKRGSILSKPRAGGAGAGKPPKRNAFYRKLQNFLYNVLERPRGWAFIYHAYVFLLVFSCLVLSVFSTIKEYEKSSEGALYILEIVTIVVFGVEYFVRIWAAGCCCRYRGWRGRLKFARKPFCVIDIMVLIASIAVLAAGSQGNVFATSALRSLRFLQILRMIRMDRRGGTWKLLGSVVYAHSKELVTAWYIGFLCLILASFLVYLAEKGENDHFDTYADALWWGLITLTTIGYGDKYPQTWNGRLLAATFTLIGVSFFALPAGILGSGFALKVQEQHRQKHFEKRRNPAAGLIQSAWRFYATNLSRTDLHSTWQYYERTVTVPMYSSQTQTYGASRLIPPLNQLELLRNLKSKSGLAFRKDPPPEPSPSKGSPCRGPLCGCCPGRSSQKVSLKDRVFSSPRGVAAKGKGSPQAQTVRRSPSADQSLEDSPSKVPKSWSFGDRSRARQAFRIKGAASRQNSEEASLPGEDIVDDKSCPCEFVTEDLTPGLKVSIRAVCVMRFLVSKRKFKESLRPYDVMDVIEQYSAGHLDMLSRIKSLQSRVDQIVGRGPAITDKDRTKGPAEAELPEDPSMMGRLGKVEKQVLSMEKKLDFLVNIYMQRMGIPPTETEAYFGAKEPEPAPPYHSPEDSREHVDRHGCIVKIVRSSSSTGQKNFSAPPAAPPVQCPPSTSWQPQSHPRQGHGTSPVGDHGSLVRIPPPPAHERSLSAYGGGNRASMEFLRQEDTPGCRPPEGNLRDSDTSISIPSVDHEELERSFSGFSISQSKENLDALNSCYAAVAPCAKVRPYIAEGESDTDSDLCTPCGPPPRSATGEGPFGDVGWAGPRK
Sequence of Human Kv7.2/7.3 (O43525 whole entry): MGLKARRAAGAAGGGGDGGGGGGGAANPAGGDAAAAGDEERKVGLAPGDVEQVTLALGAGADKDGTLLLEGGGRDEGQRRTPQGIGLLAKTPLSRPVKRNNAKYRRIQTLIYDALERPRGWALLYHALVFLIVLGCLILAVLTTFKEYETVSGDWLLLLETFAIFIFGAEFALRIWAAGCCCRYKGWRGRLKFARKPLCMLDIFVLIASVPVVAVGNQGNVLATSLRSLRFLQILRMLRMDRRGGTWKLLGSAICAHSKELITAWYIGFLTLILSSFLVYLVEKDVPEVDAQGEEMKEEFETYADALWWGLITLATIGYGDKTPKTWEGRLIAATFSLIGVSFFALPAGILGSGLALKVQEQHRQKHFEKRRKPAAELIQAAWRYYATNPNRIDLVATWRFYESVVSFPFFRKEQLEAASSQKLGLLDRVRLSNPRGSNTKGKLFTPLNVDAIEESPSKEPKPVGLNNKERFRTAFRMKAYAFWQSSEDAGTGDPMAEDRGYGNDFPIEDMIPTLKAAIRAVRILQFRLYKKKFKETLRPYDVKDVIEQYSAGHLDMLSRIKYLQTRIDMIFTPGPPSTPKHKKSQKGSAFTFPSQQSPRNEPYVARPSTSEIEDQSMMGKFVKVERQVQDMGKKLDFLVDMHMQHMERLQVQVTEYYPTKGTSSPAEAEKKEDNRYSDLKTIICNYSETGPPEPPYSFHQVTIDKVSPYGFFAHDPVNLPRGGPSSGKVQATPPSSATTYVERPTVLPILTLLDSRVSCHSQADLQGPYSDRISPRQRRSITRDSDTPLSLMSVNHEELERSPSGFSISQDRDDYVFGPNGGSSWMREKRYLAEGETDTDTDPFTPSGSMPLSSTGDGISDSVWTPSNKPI

## CCOC(=O)Nc1ccc(NCc2ccc(F)cc2)cc1NC(=O)[C@@H](N)CCCCN [Compound 4]
[1]; 0.1N HCl
  Solubility: >20 mg/mL
[1]; 0.1 N Na2HPO4, aqueous buffer, thermodynamic from solid, read-out: Solubility (freely soluble at tested concentration)
  Solubility: > 1 mg/mL
[1]; 0.1N NaCl
  Solubility: >10 mg/mL
[1]; 0.1 N NaCl, saline or isotonic, thermodynamic from solid, read-out: Solubility (freely soluble at tested concentration)
  Solubility: > 10 mg/mL
[1]; 0.1N NaOH
  Solubility: >1 mg/mL
[1]; 0.1 N NaOH, aqueous buffer, thermodynamic from solid, read-out: Solubility (freely soluble at tested concentration)
  Solubility: > 1 mg/mL
[1]; 0.1 Na2HPO4
  Solubility: >1 mg/mL
[1]; Ethanol
  Solubility: >75 mg/mL
[1]; Methanol
  Solubility: >75 mg/mL
[1]; Water
  Solubility: >20 mg/mL
[1]; ethanol, organic solvent or mixture, thermodynamic from solid, read-out: Solubility (freely soluble at tested concentration)
  Solubility: > 75 mg/mL
[1]; methanol, organic solvent or mixture, thermodynamic from solid, read-out: Solubility (freely soluble at tested concentration)
  Solubility: > 75 mg/mL
[1]; saline or isotonic, 0.9% w/v NaCl, for in vivo studies, read-out: Solubility (formulated as freely soluble solution)
  Solubility: ≥ 150 mg/mL
[1]; simulated gastric fluid, thermodynamic from solid, 0.1N HCl, read-out: Solubility (freely soluble at tested concentration)
  Solubility: > 20 mg/mL
[1]; water, thermodynamic from solid, read-out: Solubility (freely soluble at tested concentration)
  Solubility: > 20 mg/mL
[2]; 0.1N NaOH
  Reduction in peak area: > 50%
[2]; all test conditions except 0.1 N NaOH
  Stability in solvent: appears stable
[3]; mouse
  Time by which prodrug is degraded in plasma: ≤ 6 h
[3]; rat, 6 h
  Plasma stability: stable through 6 hours
[3]; rat, plasma, 23 h
  Percent remaining in plasma: below 50%
[4]
  Exposure of the prodrug itself in systemic circulation: slightly more detectable
Human Kv7.2/7.3
  Activity against the primary target of Kv7.2/7.3: inactive
[5]; 2 through 8 hours post dose
  Protection from MES induced seizures: fully protected
[5]; 1 h post dose
  Protection from MES induced seizures: almost fully protected
[6]
  AUClast/D: 6.26 ng·h/mL/mg/kg
  Cmax/D: 2.34 ng/mL/mg/kg
[7]
  Reduction in behavioral response (flicks/licks) compared to vehicle: 50%
[8]
  Colour of stability solution: remained clear and colorless through Day 18
[8]; 0.1N HCl, room temp., normal light, 269 h
  Ezogabine Area (formed from the prodrug): 0 mAU
[8]; 1N HCl, room temp., normal light, 269 h
  Ezogabine Area (formed from the prodrug): 0 mAU
[8]; 2N HCl 37C, 436 h
  Ezogabine Area (formed from the prodrug): 167 mAU
[8]; 2N HCl, room temp., normal light, 269 h
  Ezogabine Area (formed from the prodrug): 38 mAU
[8]; Methanol, room temp., normal light, 437 h
  Ezogabine Area (formed from the prodrug): 0 mAU
[8]; PBS, room temp., normal light, 435 h
  Ezogabine Area (formed from the prodrug): 0 mAU
[8]; acidic solutions and organic solvents, up to 3 weeks
  Degradation / conversion to ezogabine in solution: very little degradation to ezogabine
[8]; 437 h
  % Remaining: 98.5%
[8]; buffer, 435 h
  % Remaining: 99.2%
[8]; buffer, 436 h
  % Remaining: 94.9%
